Like-named read-outs stand apart in the source and are kept apart here.
Conditions: aqueous solution
Experimental: In addition, an equilibrium constant of inclusion complex between epinephrine and sulfobutyl ether β-cyclodextrin (SBE-CD) in aqueous solution was determined using a spectroscopy technique, i.e., UV spectrophotometer as shown in FIG. 1. The equilibrium constant (K) between epinephrine and SBE-CD was determined by increasing the molar concentration ratio of SBD-CD to epinephrine in solution and measuring the spectral shift (ΔA) as shown FIG. 2 at pH 3.5. The K value was derived from the slope and intercept of a linear relationship from a plot between [Epi][SBD-CD]/ΔA and [SBD-CD] according to the Hildebrand and Benesi equation as shown in FIG. 2 (Rong Liu, Editor, Water-Insoluble Drug Formulation, Interpharm Press, 2000; and F. Cramer et. al., The Formation of Inclusion Compounds of a-Cyclodextrin in Aqueous Solutions, J. Am. Chem. Soc., 89, 14-20, 1967, the disclosures of which are incorporated herein by reference in their entireties).

CNCC(O)c1ccc(O)c(O)c1 (single isomer, unassigned; (-)) [epinephrine, (−)-3,4-Dihydroxy-α-[(methylamino)methyl]benzyl alcohol]
equilibrium constant (K) between epinephrine and SBE-CD (pH 3.5, room temperature): 488 M⁻¹ | equilibrium constant (K) between epinephrine and SBE-CD (pH 5.5): 111 M⁻¹

Reference: patent publication US20190240337A1, “EPINEPHRINE FORMULATIONS FOR MEDICINAL PRODUCTS” (priority 2013, published 2019)
